# Tests used:
# HCV = test: Combination studies against HCV in replicon assays; format: cell-based; settings: Hepatitis C virus; monotherapy; read-out: EC50 (uM), single drug
# human hepatitis B virus [1] = test: Anti-HBV activity in the HBV transgenic mouse model, oral administration; format: in vivo, transgenic mice; settings: 10 mg/kg/d, oral, once daily 14 days
# Protocol: Compound 6k was evaluated for anti-HBV activity in the transgenic mouse model of HBV infection. Male transgenic mouse infected with HBV, with age ranging from 78 to 108 days were used. Compound 6k was initially evaluated at a single dose of 300 mg/kg, administered daily for 14 days by oral gavage. The compounds were administered in citric acid and adefovir dipivoxil was used as a positive control. A control group which received vehicle was used a negative control. Following the treatment, mice were sacrificed and liver tissue analyzed for HBV DNA using Southern blot analysis. The data was statistically evaluated using Kruskall-Wallis non-parametric ANOVA.
# (§1) (a) Male and female transgenic mice (founder 1.3.32) were infected with human hepatitis B virus. Following infection, animals were orally administered Compound 6k, or a placebo of 0.05 M citric acid, pH 2.0 once daily for 14 days. Dosage was 300 mg/kg/d for Compound 6k. The positive control, ADV, was administered at 10 mg/kg/d.
# as §1, with “Male” for “(a) Male”, “add,” for “acid,”, “Dosages were 100, 10.5 and 1” for “Dosage was 300”, “6K.” for “6k.”
# HBV WT = test: HepG2.2.15 cell-based HBV assay, wild type; settings: Hepatitis B virus, HBV WT, 9 daily doses; for EC50: read-out: EC50; for EC90: read-out: EC90
# Protocol: Selected compounds were evaluated in in vitro cell-based HepG2.2.15 HBV assay.
# Antiviral analysis. For the antiviral analyses, confluent cultures of 2.2.1.5 cells were maintained on 96-well flat-bottomed tissue culture plates in RPMI1640 medium with 2% fetal bovine serum. Cultures (6 per each test concentration on two replicate plates) were treated with 9 consecutive daily doses of the test compounds. Medium was changed daily with fresh test compounds. HBV nucleic acid and protein levels were measured 24 hours after the last treatment. Extracellular (virion) HBV DNA levels were assessed by quantitative blot hybridization. Intracellular HBV DNA levels were measured by quantitative Southern blot hybridization.
# The uptake of neutral red dye was used to determine the relative level of toxicity 24 hours following the last treatment. The absorbance of internalized dye at […] (A510) was used for the semi-quantitative analysis. Values are presented as a percentage of the average A510 values (±standard deviations) in 9 separate cultures of untreated cells maintained on the 96-well plates seeded at the same time with the identical pool of stock cells used for the antiviral analyses and maintained in an identical manner. A total of 3 cultures were treated with each concentration of the test compound.
# HBV-3TC-R4 LMMV = format: cell-based; settings: Hepatitis B virus
# hepatitis B virus (HBV) = test: Effect of i.p. administration on hepatitis B virus in transgenic mice; format: in vivo
# Protocol: Compound 5 was evaluated in transgenic mice expressing hepatitis B virus (HBV). […] Its activity was also similar to the adefovir dipivoxil (ADV) anti-HBV activity; however, the two compounds seemed to suppress different HBV DNA species. […] In contrast, Compound 5 appeared to indiscriminately remose all HBV DNA species, including the bands typically left by ADV, which may reflect a different mechanism of action other than classical chain termination. Serum HBe, liver HBs, and HBc were not affected by Compound 5 treatment, which is consistent in transgenic mice with compounds that block viral synthesis “downstream” from mRNA synthesis, such as blockage of polymerase activities. A minimal effective dosage was determined to be between 1.6-0.5 mg/kg/day, which was similar to ADV minimal effective dosage of 1.0 mg/kg/day (Table 8).
# human hepatitis B virus [2] = test: Anti-HBV activity in the HBV transgenic mouse model, oral administration; format: in vivo, transgenic mice; settings: p.o., qd × 14 d
# RIG-I = target: T1, RIG-I (Homo sapiens, UniProt O95786); test: RIG-I translocation on dsRNA, single-molecule PIFE assay; format: biochemical; settings: PIFE assay
# T1 sequence (O95786 1-925): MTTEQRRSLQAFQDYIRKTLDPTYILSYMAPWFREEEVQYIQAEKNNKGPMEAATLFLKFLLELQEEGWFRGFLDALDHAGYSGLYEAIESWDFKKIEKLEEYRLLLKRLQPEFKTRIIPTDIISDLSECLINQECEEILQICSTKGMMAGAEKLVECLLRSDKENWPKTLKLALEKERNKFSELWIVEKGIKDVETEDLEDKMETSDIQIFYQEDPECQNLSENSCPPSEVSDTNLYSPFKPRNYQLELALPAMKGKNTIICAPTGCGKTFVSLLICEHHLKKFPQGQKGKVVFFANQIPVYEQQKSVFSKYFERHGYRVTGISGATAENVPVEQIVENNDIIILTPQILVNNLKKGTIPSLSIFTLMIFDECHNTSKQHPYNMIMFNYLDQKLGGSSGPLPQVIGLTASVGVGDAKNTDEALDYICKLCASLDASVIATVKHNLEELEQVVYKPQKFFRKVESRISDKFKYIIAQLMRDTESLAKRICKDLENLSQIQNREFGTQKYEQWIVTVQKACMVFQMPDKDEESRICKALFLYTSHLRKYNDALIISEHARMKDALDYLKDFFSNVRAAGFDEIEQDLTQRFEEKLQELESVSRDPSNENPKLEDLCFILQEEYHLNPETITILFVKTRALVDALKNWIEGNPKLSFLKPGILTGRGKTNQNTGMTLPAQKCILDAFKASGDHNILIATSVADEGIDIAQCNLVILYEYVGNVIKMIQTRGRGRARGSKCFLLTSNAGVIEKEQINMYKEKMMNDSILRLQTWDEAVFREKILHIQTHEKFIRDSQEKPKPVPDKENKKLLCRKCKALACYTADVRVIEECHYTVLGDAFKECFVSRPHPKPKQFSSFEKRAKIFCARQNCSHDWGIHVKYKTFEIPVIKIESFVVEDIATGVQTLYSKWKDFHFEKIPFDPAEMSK
# Protocol: An in vitro single-molecule fluorescence assay termed PIFE (protein induced fluorescence enhancement) was employed to monitor such movement (Myong, S. et al., Science, 323, 1070, 2009).
# For quantitation of RIG-I translocation, Single molecule PIFE yields were estimated. Single molecule PIFE yields are obtained from several hundred molecules simultaneously, allowing statistically reliable data collection.
# The translocation as above was carried out using different concentrations of nucleotide compound.
# A standard dsRNA (25 bp) was used as a main substrate for RIG-I translocation assay. […] The ratio between rapid (stimulated) translocation and slow translocation would be accounted for in the estimation of compound strength. In order to quantify the affinity of the compound to RIG-I or to RNA substrate, various concentrations of the compound (1-100 μM range) were used in the assay. This enabled the calculation of the association/dissociation constant for each compound, which was a useful measure to apply in cell-based evaluation of compound potency.
# The same translocation assay was used on dsRNA, which contains […] moiety with and without the compound.
# [3] = Cytotoxicity by neutral red dye uptake in HCV replicon cultures; format: cell-based; settings: human, AVA5 HCV replicon cell line (sub-genomic CON1, genotype 1b); single drug, Table 9; read-out: CC50
# Protocol: Antiviral activity against HCV was assessed in a 3-day assay (Okuse, et al., 2005; Antiviral. Res. 65:23; Korba, et al., 2008, Antiviral Res. 77:56) using the stably-expressing HCV replicon cell line, AVA5 (sub-genomic (CON1), genotype 1b) (Blight, et al., 2000; Science 290:1972) maintained as sub-confluent cultures on 96-well plates. Antiviral activity was determined by blot hybridization analysis of intracellular HCV RNA (normalized to the level of cellular B-actin RNA in each culture sample). Cytotoxicity was assessed by neutral red dye uptake in cultures maintained in parallel plates.
# EC50, EC90, and CC50 values were calculated by linear regression analysis (MS EXCEL®, QuattroPro®) using data combined from all treated cultures Korba & Gerin, 1992, Antivir. Res. 19:55; Okuse, et al., 2005, Antivir. Res. 65:23). […]
# Combination treatments are conducted as previously described. Briefly, two agents were mixed together at a pre-determined concentration ratio. […] Analysis of drug interactions in the combination studies was determined by the use of the CALCUSYN program (Biosoft, Inc., Cambridge, United Kingdom). […]
smiles,measurement,setting,value
NC(=O)c1ncn([C@@H]2O[C@H](CO)[C@@H](O)[C@H]2O)n1 [Ribavirin],EC50,HCV,> 30 µM
"CC(C)(C)C(=O)OCOP(=O)(COCCn1cnc2c(N)ncnc21)OCOC(=O)C(C)(C)C [ADV, adefovir dipivoxil, reference compound]",Liver HBV RNA (log transcripts ± sd),human hepatitis B virus [1],10.5 ± 0.4 log transcripts
same,QPCR Liver HBV DNA (pg/μg mean ± sd),human hepatitis B virus [1],1.7 ± 1.1 pg/µg
same,Southern blot Liver HBV DNA (pg/μg mean ± sd),human hepatitis B virus [1],0.9 ± 1.1 pg/µg
same,EC50,HBV WT,1500 nM
same,EC90,HBV WT,7000 nM
same,EC50,HBV-3TC-R4 LMMV,2200 nM
same,EC90,HBV-3TC-R4 LMMV,8300 nM
same,Liver HBV DNA (mean pg viral/μg cellular DNA ± stdev),"hepatitis B virus (HBV); 10 mg/kg/d, once daily 14 days",2.7 ± 1.4 (9) pg viral/μg cellular DNA
same,Serum HBV DNA (mean log10 genome equivalents/mL serum ± stdev),"hepatitis B virus (HBV); 10 mg/kg/d, once daily 14 days",4.9 ± 0.4 (9) log10 genome equivalents/mL serum
same,minimal effective dosage,hepatitis B virus (HBV); HBV transgenic mice,1.0 mg/kg/day
same,Liver HBV DNA Southern blot (pg/μg mean ± sd),human hepatitis B virus [2]; 0.032 mg/kg/d,8.3 ± 11.3 (3) pg/μg
same,Liver HBV DNA Southern blot (pg/μg mean ± sd),human hepatitis B virus [2]; 0.10 mg/kg/d,15.6 ± 13.7 (4) pg/μg
CO[C@H]1C(OP(=O)(O)OC[C@H]2O[C@@H](n3cnc4c(N)ncnc43)CC2O)[C@@H](CO)O[C@H]1n1ccc(=O)[nH]c1=O (some centres unmarked) [SB 70],RIG-I translocation on dsRNA (activity in words),RIG-I,varying degrees of RIG-I translocation
CO[C@H]1C(OP(=O)(O)OC[C@H]2O[C@@H](n3cnc4c(N)ncnc43)CC2O)[C@@H](COP(=O)(O)OP(=O)(O)OP(=O)(O)O)O[C@H]1n1ccc(=O)[nH]c1=O (some centres unmarked) [SB 80],RIG-I translocation on dsRNA (activity in words),RIG-I,varying degrees of RIG-I translocation
Nc1ncnc2c1ccn2[C@H]1CC(OP(=O)(O)OC[C@H]2O[C@@H](n3cnc4c(N)ncnc43)CC2O)[C@@H](COP(=O)(O)OP(=O)(O)OP(=O)(O)O)O1 (some centres unmarked) [SB 90],RIG-I translocation on dsRNA (activity in words),RIG-I,varying degrees of RIG-I translocation
"Nc1ccn([C@@H]2CS[C@H](CO)O2)c(=O)n1 [Compound 3TC, Lamivudine]",EC50,HBV WT,200 nM
same,EC90,HBV WT,700 nM
same,EC50,HBV-3TC-R4 LMMV,> 100000 nM
same,EC90,HBV-3TC-R4 LMMV,> 100000 nM
CC(C)[C@H](N)C(=O)O[C@@H]1[C@@H](CO)O[C@@H](n2ccc(N)nc2=O)[C@]1(C)O [2C MeCyt (NM 283)],EC50,HCV,1.4 µM
"CCC[C@H](NC(=O)[C@@H]1[C@H]2CCC[C@H]2CN1C(=O)[C@@H](NC(=O)[C@@H](NC(=O)c1cnccn1)C1CCCCC1)C(C)(C)C)C(=O)C(=O)NC1CC1 [Vertex (telaprevir), telaprevir, reference compound]",CC50 at 3 day,[3],< 80000 nM
same,EC50,HCV,0.25 µM

# Reference: patent US20150329864A1, “DESIGN OF OLIGONUCLEOTIDE ANALOGS AS THERAPEUTIC AGENTS” (SPRING BANK PHARMACEUTICALS, INC., priority 2010, published 2015)
